Laboratory results taken from publication PMC12426935, “On-Cell Saturation Transfer Difference NMR Spectroscopy on Ion Channels: Characterizing Negative Allosteric Modulator Binding Interactions of P2X7” (Journal of the American Chemical Society, 2025).
Where two headings read alike, the source gives them in different places.

Legend:
M105A hP2X7 = biological target: T1, M105A hP2X7 (Homo sapiens, UniProt Q99572, M105A); assay: fura-2 intracellular calcium assay on HEK-293 stable cell line expressing NAM-site mutant M105A hP2X7; assay type: cell-based; conditions: for IC50: n = 3
T1 sequence (Q99572 1-595 M105A): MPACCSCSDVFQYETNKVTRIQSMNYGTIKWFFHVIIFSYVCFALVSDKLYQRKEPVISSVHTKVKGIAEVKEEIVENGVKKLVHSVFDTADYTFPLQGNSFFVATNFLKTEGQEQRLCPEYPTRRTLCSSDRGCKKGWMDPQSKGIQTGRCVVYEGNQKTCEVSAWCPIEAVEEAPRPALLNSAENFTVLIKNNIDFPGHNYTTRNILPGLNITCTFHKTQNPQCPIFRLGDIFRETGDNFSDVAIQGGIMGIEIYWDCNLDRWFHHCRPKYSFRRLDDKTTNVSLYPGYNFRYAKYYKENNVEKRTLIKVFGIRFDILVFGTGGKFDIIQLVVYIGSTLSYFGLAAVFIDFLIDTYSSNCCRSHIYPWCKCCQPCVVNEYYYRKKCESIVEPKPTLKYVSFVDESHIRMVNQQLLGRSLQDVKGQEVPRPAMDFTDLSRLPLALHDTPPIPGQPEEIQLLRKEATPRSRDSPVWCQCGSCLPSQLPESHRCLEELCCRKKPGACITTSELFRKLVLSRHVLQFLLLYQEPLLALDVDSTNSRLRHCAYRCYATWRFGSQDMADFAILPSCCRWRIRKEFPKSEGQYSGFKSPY
Description: (§1) Transfection was performed using lipofectamine 2000 (Fisher Scientific), and cells were subjected to Geneticin (800 μg/mL) selection for 2–3 weeks. This was followed by single cell cloning by limiting dilution in 96-well plates. Individual clones were selected for further study based on ATP-induced TO-PRO-3 uptake on a BD Cytoflex flow cytometer. Cell lines were maintained in DMEM:F12 media supplemented with 10% fetal bovine serum (PanBiotech), penicillin and streptomycin (Fisher Scientific) and kept in a humidified incubator with 5% CO2. Stable P2X7-expressing cells were kept under Geneticin selection at a concentration of 400 μg/mL. Passaging was performed twice weekly using 0.25% Trypsin-EDTA (Fisher Scientific).
(§2) P2X7 responses were measured by monitoring intracellular calcium responses using fura-2AM loaded cells. Cells were plated at 2–2.5 × 10^4 cells/well the day before experiments in 96-well plates (NUNC) coated with 50 μg/mL poly-D-lysine (Merck Millipore). A loading buffer containing 2 μM fura-2AM (HelloBio) and 250 μM sulfinpyrazone (Merck Millipore) in a low divalent buffer (145 mM NaCl, 5 mM KCl, 0.2 mM CaCl2, 10 mM HEPES, 13 mM glucose, pH 7.3) was added to cells for 45 min at 37 °C. After loading, the buffer was removed and replaced with calcium-containing extracellular solution (145 mM NaCl, 5 mM KCl, 2 mM CaCl2, 10 mM HEPES, 13 mM glucose, pH 7.3). Responses were measured using a Flexstation 3 plate reader (Molecular Devices) with dual excitation wavelengths of 340 and 380 nm and single emission wavelength of 510 nm. The sample interval was 3.5 s, and each well was recorded for 180 s. Fura-2 ratios were calculated in Softmax Pro v5.4; zero baseline was applied, and responses were measured as normalized area under the curve (AUC). Dose inhibition curves were plotted using GraphPad Prism v6 nonlinear regression (three parameter fit) and log IC50 values reported.

mouse P2X7 (mP2X7) = biological target: T2, mouse P2X7 (mP2X7) (Mus musculus, UniProt Q9Z1M0); assay: fura-2 intracellular calcium assay on HEK-293 stable cell line expressing mouse P2X7; assay type: cell-based
T2 construct: expressed in transfected cells
T2 sequence (Q9Z1M0 1-595): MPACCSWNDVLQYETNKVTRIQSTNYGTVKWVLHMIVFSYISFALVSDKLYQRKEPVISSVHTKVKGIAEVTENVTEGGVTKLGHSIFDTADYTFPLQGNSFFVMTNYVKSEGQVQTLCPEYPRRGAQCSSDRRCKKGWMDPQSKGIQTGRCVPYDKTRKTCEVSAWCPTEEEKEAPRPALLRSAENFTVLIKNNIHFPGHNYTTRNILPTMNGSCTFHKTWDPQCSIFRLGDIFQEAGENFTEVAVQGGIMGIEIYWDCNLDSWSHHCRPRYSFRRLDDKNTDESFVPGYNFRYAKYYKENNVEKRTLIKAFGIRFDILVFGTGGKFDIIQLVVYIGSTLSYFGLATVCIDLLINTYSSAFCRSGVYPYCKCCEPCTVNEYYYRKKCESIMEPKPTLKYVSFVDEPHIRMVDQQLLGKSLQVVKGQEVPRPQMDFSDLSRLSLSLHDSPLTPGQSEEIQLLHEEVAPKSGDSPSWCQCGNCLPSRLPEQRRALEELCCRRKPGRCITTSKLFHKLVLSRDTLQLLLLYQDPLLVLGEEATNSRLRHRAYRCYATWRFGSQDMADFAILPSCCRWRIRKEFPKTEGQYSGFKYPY
Description: as §1, with “Genetically edited HEK-293 cells lacking P2Y2 receptors were used to generate stable cell lines expressing human P2X7 (hP2X7), mouse P2X7 (mP2X7), rat P2X7 (rP2X7), or mutants of the hP2X7 NAM site (F88A, M105A, and F103A). Transfection” for “Transfection”
as §2, with “Dose inhibition curves were plotted using GraphPad Prism v6 nonlinear regression (three parameter fit) and log IC50 values reported.” left out

For O=C(NCC1(N2CCN(c3ccccc3)CC2)CCOCC1)c1cccnc1Sc1ccccc1 [JNJ-47965567], the IC50 (M105A hP2X7; M105A hP2X7, agonist ATP, log IC50 ± standard error, read-out: Log IC50 (converted)) was 45.6 nM, the IC50 (M105A hP2X7; M105A hP2X7, agonist ATP, mean in brackets, read-out: mean IC50) was 45 nM and the IC50 (M105A hP2X7; M105A hP2X7, agonist BzATP, mean in brackets, read-out: mean IC50) was 28.7 nM. The “increase in IC50 at M105A-hP2X7 relative to hP2X7” value (M105A hP2X7; M105A hP2X7 vs hP2X7) was “less than 5 fold”, the IC50 (mouse P2X7 (mP2X7); Mouse P2X7 (Table 1), mean in brackets, n = 3) was 125 nM and the “difference between hP2X7 and mP2X7 IC50 values” (mouse P2X7 (mP2X7); mP2X7 vs hP2X7) was 13 fold.
